Test results as given in US20240358683A1, “COMPOSITION FOR PREVENTING OR TREATING NEURODEGENERATIVE DISEASE COMPRISING COMPOUND INDUCING EXPRESSION OF ANTI-AGING GENE KLOTHO” (KLOTHO SCIENCES, priority 2021, published 2024).

Experiments:
human klotho gene [1] = assay: Luciferase expression experiment, human klotho promoter reporter (1.7 kbp / 240 bp) in RPTEC cells; assay type: cell-based; details: 5 μM, 24 hours, compared among Comparative Examples 1 to 4, FIG. 1
Description: (§1) In order to evaluate whether the klotho gene was expressed by the evaluation of luciferase activity, human renal proximal tubule epithelial cells (RPTECs) (ATCC CRL-4031), which are epithelial cells of the proximal tubule of the human kidneys, were purchased from Lonza, USA and used.
(§2) For culturing, a Renal Epithelial Growth Medium (REGM™) Bullet kit, also manufactured by the same Lonza company, was used, and the cells were cultured under conditions of 37° C. and 5% CO2. As a plasmid for luciferase expression, a plasmid in which the promoter site of a human KL (klotho) gene was disposed to regulate the expression of a firefly luciferase gene was used.
The plasmid was incorporated into cells using an X-treme GENE transfection reagent from Roche. The activity of luciferase expressed in cells was measured using a Dual-Luciferase reporter assay system manufactured by Promega. After the cultured cells were treated with each compound at an indicated concentration for 24 hours, the activity of luciferase was measured. It is indirectly shown that the expression of the klotho gene may be increased when the activity of luciferase is high. […]

human klotho gene [2] = assay: Luciferase expression experiment, reporter gene pHKP-luc (promoter up to -2.1 kb upstream of the human klotho gene) in RPTECs; assay type: cell-based
Description: as §1, §2
The plasmid was incorporated into cells using an X-treme GENE transfection reagent from Roche. The activity of luciferase expressed in cells was measured using a Dual-Luciferase reporter assay system manufactured by Promega. After the cultured cells were treated with each compound at an indicated concentration for 24 hours, the activity of luciferase was measured. It is indirectly shown that the expression of the klotho gene may be increased when the activity of luciferase is high.
The results of confirming the expression of a reporter gene by treating RPTECs, which are epithelial cells of the proximal tubule of the human kidneys, with Examples 1 to 6 at concentrations of 0.5, 1 and 5 μM and Comparative Example 1 at a concentration of 5 μM and using a reporter gene (pHKP-luc) including a promoter included up to −2.1 kb upstream of the human klotho gene are illustrated in FIGS. 2 and 3.

klotho (KL) gene [3] = assay: Quantitative evaluation of klotho (KL) gene expression level using real-time PCR in RPTEC cells; assay type: cell-based, human; details: RPTEC cells treated for 6 hours; vs Comparative Example 1; FIG. 4
Description: For RNA extraction from RPTEC cells, which are epithelial cells of the proximal tubule of the human kidneys, treated with the compounds of Comparative Example 1 and Examples 1 and 2 for 6 hours, an RNeasy kit from Qiagen Inc. was used. The results of preparing cDNA from extracted RNA using a Superscript II kit from Thermo Fisher Scientific, Inc. and performing the quantitative evaluation using Taqman Gene Expression assays from Applied Biosystems as a klotho (KL) gene-specific kit are illustrated in FIG. 4.

phospho-Tau = phospho-Tau immunohistochemistry of brain tissue sections, 5×FAD cognitive dysfunction animal model; assay type: in vivo; details: 5×FAD mice, 10 mg/kg p.o. daily, FIG. 9
From the text: (§3) In this experiment, 5×FAD mice aged 4 months or 6 months were used. 5×FAD mice are Alzheimer's mice genetically modified to overproduce beta amyloid (Aβ, β amyloid) and were provided by the KIST Research Animal Resource Center, which maintains and sells them. Normal control (WT) mice, which are not genetically modified to overproduce β-amyloid (Aβ), were provided by the KIST Research Animal Resource Center. The animals were acclimatized for 1 week before the experiments. Mice were kept on an ad libitum diet in an animal room maintained at 22±2° C. and 40-60% humidity, and the light and dark cycles were controlled at 12-hour intervals. All animal experiments were performed in accordance with the animal care and use regulations of the Institutional Animal Care and Use Committee of the Korea Advanced Institute of Science and Technology (KIST).
(§4) Animal model mice and normal control mice received vehicle (5% DMSO+65% PEG400+30% Saline) or vehicle with KS1 (Example 10) dissolved in it orally (p.o.) at a concentration of 10 mg/kg daily for 4 or 12 weeks. Three mice were used per experimental group. The body weight was measured weekly during the treatment period, and after the end of the treatment, the cognitive function was tested and sacrificed, and the organs were harvested to confirm the changes through biochemical methods.
(§5) All data were expressed as mean (S.E.M), and differences between groups were determined using one-way ANOVA and Tukey's multiple comparisons test. When it was determined that there was a statistical difference, p<0.05 *, p<0.01 **, p<0.001 *** were indicated.
(§6) The fluorescence levels of phospho-Tau measured in each region (HPC: hippocampus; CTX: neocortex) of brain tissue sections isolated from control (CTL) and KS1 1-month and 3-month treatment groups of 5×FAD cognitive dysfunction animal model and normal control animal model were investigated by Immunohistochemistry.

HT22 cells [4] = assay: Neuronal senescence inhibition, senescence β-galactosidase staining; assay type: cell-based, mouse; details: FIG. 7
Description: (§7) HT22 cells, neuronal cells derived from mouse hippocampus, were cultured in DMEM culture medium supplemented with 10% FBS. Cell cultures were incubated in a 37° C. incubator at 5% CO2, and when the cells grew to saturate the surface of the culture dish by 80%, they were treated with 0.05% trypsin and transferred to new culture dishes for passage. The compound was added to the medium at each passage to maintain a final concentration of 2.5 μM. Cells with only DMSO as solvent were used as a negative control, and cells from three passages (#5) were used as a non-aging control. All senescent cells were cultured in 20 passages (#25).
To check the degree of senescence of the cells, “Senescence β-galactosidase staining kit” from Cell Signaling Technology was used. The staining solution was added to the cells on the day of the experiment and the stained cells were checked 8 hours later. The number of stained cells was determined and expressed as a percentage of the total number of cells observed under a 200× microscope, and the number of stained cells in three different locations per sample was counted and averaged. As the expression of β-galactosidase enzyme increases as the aging of cells progresses, stained cells can be judged as more aged cells than unstained cells.

NeuN = NeuN immunohistochemistry of brain tissue sections, 5×FAD cognitive dysfunction animal model; assay type: in vivo; details: 5×FAD mice, 10 mg/kg p.o. daily, FIG. 10
From the text: as §3, §4, §5
as §6, with “level” for “levels”, “NeuN” for “phospho-Tau”, “(CTX: neocortex, CA: […], DG: dentate gyrus)” for “(HPC: hippocampus; CTX: neocortex)”, “was” for “were”

[5] = test system: human kidney-2 (HK2) cells; assay: Toxicity test, EZ-Cytox kit; assay type: cell-based; details: 12.5 μM or 25 μM, 24 hours, FIG. 6
Description: Cultured human kidney-2 (HK2) cells were treated with Comparative Example 1, Example 2 and Examples 9 to 10 at a concentration of 25 μM or 12.5 μM, and after 24 hours, cytotoxicity was measured using an EZ-Cytox kit.

klotho (KL) gene [6] = assay: Quantitative evaluation of klotho (KL) gene expression level using general PCR in RPTEC cells; assay type: cell-based, human; details: 2.5 μM, 6 hours, FIG. 5
Description: After RPTEC cells, which are epithelial cells of the proximal tubule of the human kidneys, were each treated with the compounds of Examples 7 to 10 at 2.5 μM for 6 hours, RNA was extracted from the cells, and cDNA was prepared from the extracted RNA using a Superscript II kit from Thermo Fisher Scientific, Inc., and then general PCR was performed.
Information on the primers used in the experiment is as follows. • KL-F […] (SEQ ID NO: 1) • KL-R […] (SEQ ID NO: 2) • GAPDH-F […] (SEQ ID NO: 3) • GAPDH-R […] (SEQ ID NO: 4)
The DNA amplified by PCR was confirmed by staining with ethidium bromide after electrophoresis on an agarose gel, and the amounts of DNA in the band were quantitatively compared using the SPEedyQuant program, and are illustrated in FIG. 5.

HT22 cells [7] = assay: Neuronal inflammation inhibition, LPS-induced cytotoxicity (Cyto X cell viability assay); assay type: cell-based, mouse; details: 2.5 μM, LPS 1 μg/mL 24 hours, FIG. 8
Description: as §7
Cells were seeded at 10,000 cells in 160 μl of medium into each well of a 96-well plate and incubated in a 37° C. incubator at 5% CO^2 for 24 h. The compounds were added to the culture medium to a final concentration of 2.5 μM. After incubation, LPS (lipopolysaccharide) from Cell application was added at a concentration of 1 μg/mL and incubated for another 24 hours. The Cyto X cell viability assay kit from the same company was then added 20 μl to each well and incubated for 1 to 4 hours. The color change was then measured at 450 nm.

5×FAD mice [8] = assay: Passive avoidance experiment in 5×FAD mice; assay type: in vivo; details: 10 mg/kg p.o. daily for 4 weeks, compared to normal mice, FIG. 12
From the text: as §3, with “All animal experiments were performed in accordance with the animal care and use regulations of the Institutional Animal Care and Use Committee of the Korea Advanced Institute of Science and Technology (KIST).” left out
as §4, with “Three mice were used per experimental group.” left out, “methods. […]” for “methods.”
as §5

5×FAD mice [9] = assay: Novel object recognition test (NOR) in 5×FAD mice; assay type: in vivo; details: 10 mg/kg p.o. daily, compared to vehicle, FIG. 11
From the text: as §3, with “All animal experiments were performed in accordance with the animal care and use regulations of the Institutional Animal Care and Use Committee of the Korea Advanced Institute of Science and Technology (KIST).” left out
as §4, with “Three mice were used per experimental group.” left out
The novel object recognition test is a modification of the existing method and consists of an adaptation period, an exploration period, and a novel object recognition period. […] The next day, one of the objects was replaced with a new object and the animal's movement was measured for 10 minutes. […]

[10] = RPTECs, Examples at 0.5, 1 and 5 μM vs Comparative Example 1 at 5 μM, FIG. 2

O=C(Nc1ccccc1Cl)c1c[nH]c2ccccc12 [Comparative Example 1, N-(2-chlorophenyl)-1H-indole-3-carboxamide]
luciferase activity (human klotho gene [1]): the highest

O=C(Nc1nc2ccccc2o1)c1ccc([N+](=O)[O-])cc1Cl [Example 1, N-(benzo[d]oxazol-2-yl)-2-chloro-4-nitrobenzamide]
expression of the reporter gene (pHKP-luc) (human klotho gene [2]; [10]): level similar to that of Comparative Example 1

Cc1ccc2oc(Nc3ccc(Cl)c(Cl)c3)nc2c1 [Example 2]
klotho (KL) gene mRNA expression level, real-time PCR (klotho (KL) gene [3]): level similar to that of Comparative Example 1 | expression of the reporter gene (pHKP-luc) (human klotho gene [2]; RPTEC cells, 5 μM, vs Comparative Example 1, FIG. 3): level similar to that of Comparative Example 1 | expression of the reporter gene (pHKP-luc) (human klotho gene [2]; [10]): level similar to that of Comparative Example 1

Fc1ccc(Nc2nc3ccccc3o2)cc1F [Example 10, N-(3,4-difluorophenyl)benzo[d]oxazol-2-amine]
expression of phospho-Tau protein, hippocampus (HPC) region (phospho-Tau; 1-month and 3-month treatment): reduced expression of the proteins was seen in only the 3-month treated mice | expression of phospho-Tau protein, primary somatosensory cortex (CTX) region (phospho-Tau; 1-month and 3-month treatment): reduced expression of the proteins was seen in both 1- and 3-month treated mice | expression of phospho-Tau protein (phospho-Tau; compared to vehicle): reduced to a statistically significant level | β-galactosidase stained cells as a percentage of the total number of cells (HT22 cells [4]; HT22 cells cultured for 20 passages, 2.5 μM in the medium, DMSO control about 50%): 40% | decrease in the degree of senescence compared to cells grown in medium containing DMSO (HT22 cells [4]; HT22 cells, 20 passages, 2.5 μM): 20% | expression of NeuN neuromarker protein (NeuN; compared to vehicle): increased to a statistically significant level | NeuN, Cornu Ammonis (CA) (NeuN): an increase in NeuN was confirmed | NeuN, dentate gyrus (DG) (NeuN): no significant increase | NeuN, primary somatosensory cortex (CTX) (NeuN): no significant increase | cytotoxicity [5]: the least toxicity | improvement of toxicity compared to Comparative Example 1 [5]: ≥ 20% | expression level of the klotho (KL) gene relative to Comparative Example 1 (klotho (KL) gene [6]): about 10 times | percentage of cells killed by LPS treatment (HT22 cells [7]; HT22 cells cultured for 5 passages, DMSO control 50%): 45% | percentage of cells killed by LPS treatment (HT22 cells [7]; HT22 cells cultured for 20 passages, DMSO control about 80%): 60% | spatial learning and memory performance, passive avoidance test (5×FAD mice [8]): maintained a similar level of performance to normal mice | object detection ability (NOR) (5×FAD mice [9]): statistically significant increase in object detection ability
